Source: patent US20240293418A1, “COMBINATION THERAPY FOR TREATING CANCER” (Epizyme, Inc., priority 2016, published 2024)
Where two headings read alike, the source gives them in different places.

Legend:
LP-1 [1] = test: 7 day pretreatment + 4-day co-treatment combination model (Cell Titer Glo); settings: for IC50: Homo sapiens, LP-1, 96 h, read-out: 4-day IC50; for combinatorial effect by Loewe volumes: second agent + tazemetostat, 7 day pretreatment + 4-day co-treatment, LP-1 t(4;14)
Text: (§1) Assay plates were developed for endpoint analysis using Cell Titer Glo to measure ATP content, which was used as an indicator of cell viability. DMSO concentration was kept constant throughout the assay at less than 0.2% v/v.
(§2) Cell lines: The cell lines MI1.S and U266B1 were obtained from American Type Culture Collection (ATCC; Rockville, MD). The cell lines LP-1, L-363 were obtained from Deutsche Sammlung von Mikroorganismen and Zellkulturen (DSMZ; Braunschweig, Germany) and the cell line KMS-28BM was obtained from Japanese Collection of Research Bioresources Cell Bank (JCRB, Osaka Japan). All cells were maintained as instructed by the supplier and cultures were maintained at 37° C. in a humidified atmosphere and 5% CO2.
(§3) Loewe volumes greater than 1 denoted synergy and volumes <−1 denoted antagonism.

RPMI-8226 [2] = test: 7-day co-treatment combination model (Cell Titer Glo); settings: for Loewe volume: second agent + tazemetostat, 7 day co-treatment
Experimental: as §1
(§4) Cell lines: The cell lines MI1.S and U266B1 were obtained from American Type Culture Collection (ATCC; Rockville, MD). […] All cells were maintained as instructed by the supplier and cultures were maintained at 37° C. in a humidified atmosphere and 5% CO2.
as §3

KMS-28-BM [3] = test: as above; settings: for IC50: KMS-28BM, 168 h, read-out: 7-day IC50; for combinatorial effect by Loewe volumes / Loewe volume: second agent + tazemetostat; for combinatorial effect by Loewe volumes: 7-day co-treatment, KMS-28-BM t(4;14); for Loewe volume: 7 day co-treatment, KMS-28-BM
Experimental: as §1
(§5) All cells were maintained as instructed by the supplier and cultures were maintained at 37° C. in a humidified atmosphere and 5% CO2.
as §3

MOLP-8 [4] = test: as above; settings: second agent + tazemetostat; for combinatorial effect by Loewe volumes: 7-day co-treatment, MOLP-8 t(11;14); for Loewe volume: 7 day co-treatment, MOLP-8
Experimental: as §1, §5, §3

L-363 [5] = test: 7 day pretreatment + 4-day co-treatment combination model (Cell Titer Glo); settings: for IC50: Homo sapiens, L-363, 96 h, read-out: 4-day IC50; for combinatorial effect by Loewe volumes: second agent + tazemetostat, 7 day pretreatment + 4-day co-treatment, L-363 t(20;22)
Text: as §1, §2, §3

L-363 [6] = tested on: L-363
Experimental: as §1, §4, §3

U266 [7] = tested on: U266
Experimental: as §1, §4, §3

Jeko-1 [8] = test: mantle cell lymphoma 7 day pretreatment + 4-day co-treatment model (Cell Titer Glo)
Text: Cells were then co-treated in triplicate with a second compound, 3-fold serially diluted for additional 4 days. After this time, plates were developed for endpoint analysis using Cell Titer Glo to measure ATP content, which is used as an indicator of cell viability.
A Loewe volume greater than 1 denoted synergy. A Loewe volume between −1 and 1 denoted additivity, and a negative Loewe volume of less than −1, denoted antagonism.

KMS-28-BM [9] = test: 7 day pretreatment + 4-day co-treatment combination model (Cell Titer Glo); settings: for IC50: KMS-28BM, 96 h, read-out: 4-day IC50; for Loewe volume / combinatorial effect by Loewe volumes: second agent + tazemetostat, 7 day pretreatment + 4-day co-treatment; for Loewe volume: KMS-28-BM; for combinatorial effect by Loewe volumes: KMS-28-BM t(4;14)
Experimental: as §1, §5, §3

MM1.S [10] = test: 7-day co-treatment combination model (Cell Titer Glo); settings: Homo sapiens, 168 h, read-out: 7-day IC50
Experimental: as §1, §4, §3

U266 [11] = test: 7 day pretreatment + 4-day co-treatment combination model (Cell Titer Glo); settings: for IC50: Homo sapiens, U-266, 96 h, read-out: 4-day IC50; for combinatorial effect by Loewe volumes: second agent + tazemetostat, 7 day pretreatment + 4-day co-treatment, U266 t(11;14)
Text: as §1, §2, §3

Jeko-1 [12] = test: mantle cell lymphoma 7 day co-treatment model; type: cell-based
MM1.S [13] = test: 7 day pretreatment + 4-day co-treatment combination model (Cell Titer Glo); settings: Homo sapiens, MM1.S, 96 h, read-out: 4-day IC50
Text: as §1, §2, §3

LP-1 [14] = test: 7-day co-treatment combination model (Cell Titer Glo); settings: for combinatorial effect by Loewe volumes: 7-day co-treatment, LP-1 t(4;14)
Experimental: as §1, §5, §3

MOLP-8 [15] = test: 7 day pretreatment + 4-day co-treatment combination model (Cell Titer Glo); settings: second agent + tazemetostat, MOLP-8 t(11;14)
Experimental: as §1, §5, §3

[16] = tested on: multiple myeloma cell lines and primary patient samples; settings: reported in the literature; cited from earlier work
[17] = tested on: Ikaros, Aiolos, IRF4 expression in RPMI-8226 cells; test: western blot of Ikaros, Aiolos, IRF4 in RPMI-8226 cells; type: cell-based; settings: 3 days
RPMI-8226 [18] = test: apoptosis in RPMI-8226 cells; type: cell-based; settings: tazemetostat 31, 125, 500 nM + pomalidomide 3, 12.5, 50 nM, 3 days
[19] = second agent + tazemetostat, 7 day pretreatment + 4-day co-treatment, Jeko-1
[20] = second agent + tazemetostat, 7 day co-treatment

With `C[C@@H]1C[C@H]2[C@@H]3CCC4=CC(=O)C=C[C@]4(C)[C@@]3(F)[C@@H](O)C[C@]2(C)[C@@]1(O)C(=O)CO` [Dexamethasone, dexamethasone] the IC50 (LP-1 [1]) was 4 nM, the “combinatorial effect by Loewe volumes” value (LP-1 [1]) was “S (Synergy)” and the Loewe volume (RPMI-8226 [2]) was 1.73. The IC50 (KMS-28-BM [3]) was 2.7 nM, the “combinatorial effect by Loewe volumes” value (KMS-28-BM [3]) was “S (Synergy)” and the Loewe volume (KMS-28-BM [3]) was 4.34. For the same compound, the “combinatorial effect by Loewe volumes” value (MOLP-8 [4]) was “S (Synergy)”, the Loewe volume (MOLP-8 [4]) was 3.61 and the IC50 (L-363 [5]) was 7 nM. For the same compound, the “combinatorial effect by Loewe volumes” value (L-363 [5]) was “A (Additive)”, the IC50 (L-363 [6]) was 3.5 nM and the IC50 (U266 [7]) was greater than 10000 nM. For the same compound, the IC50 (Jeko-1 [8]; Homo sapiens, JeKo-1, 96 h, read-out: Second agent IC50) was greater than 10000 nM, the “Best CI” value (Jeko-1 [8]; [19]) was 0.22 and the “Bliss Volume” value (Jeko-1 [8]; [19]) was 4.48. The “HSA Volume” value (Jeko-1 [8]; [19]) was 7.04, the “Loewe Volume” value (Jeko-1 [8]; [19]) was 6.91 and the “Synergy Score” value (Jeko-1 [8]; [19]) was 6.33. For the same compound, the IC50 (KMS-28-BM [9]) was 6 nM, the Loewe volume (KMS-28-BM [9]) was 2.45 and the “combinatorial effect by Loewe volumes” value (KMS-28-BM [9]) was “S (Synergy)”. The IC50 (MM1.S [10]) was 7 nM, the IC50 (U266 [11]) was greater than 10000 nM and the “combinatorial effect by Loewe volumes” value (U266 [11]) was “A (Additive)”. The IC50 (Jeko-1 [12]; Homo sapiens, 168 h, second agent alone, 7 day co-treatment model) was 780 nM, the “Best CI” value (Jeko-1 [12]; [20]) was 0.16 and the “Bliss Volume” value (Jeko-1 [12]; [20]) was 2.96. For the same compound, the “HSA Volume” value (Jeko-1 [12]; [20]) was 5.19, the “Loewe Volume” value (Jeko-1 [12]; [20]) was 4.32 and the “Synergy Score” value (Jeko-1 [12]; [20]) was 4.36. The IC50 (MM1.S [13]) was 12 nM, the IC50 (LP-1 [14]; Homo sapiens, LP-1, 168 h, read-out: 7-day IC50) was 5 nM and the “combinatorial effect by Loewe volumes” value (LP-1 [14]; second agent + tazemetostat) was “S (Synergy)”. The Loewe volume (LP-1 [14]; second agent + tazemetostat, 7 day co-treatment, LP-1) was 4.79 and the “combinatorial effect by Loewe volumes” value (MOLP-8 [15]) was “S (Synergy)”.
In the case of `CCCc1cc(C)[nH]c(=O)c1CNC(=O)c1cc(-c2ccnc(N3CCN(C)CC3)c2)cc2c1cnn2C(C)C` [GSK343], the “growth of multiple myeloma cell lines and primary patient samples” value [16] is given as “inhibited”.
With `Nc1cccc2c1C(=O)N(C1CCC(=O)NC1=O)C2=O` (centres unmarked) [Pomalidomide, pomalidomide] the IC50 (LP-1 [1]) was 106 nM, the “combinatorial effect by Loewe volumes” value (LP-1 [1]) was “S (Synergy)” and the “curve shift analysis of combination” value (RPMI-8226 [2]; pomalidomide + tazemetostat, 7-day combination assay (FIG. 8)) was “synergy”. The Loewe volume (RPMI-8226 [2]) was 3.9, the IC50 (KMS-28-BM [3]) was 100 nM and the “combinatorial effect by Loewe volumes” value (KMS-28-BM [3]) was “S (Synergy)”. The Loewe volume (KMS-28-BM [3]) was 7.65, the “combinatorial effect by Loewe volumes” value (MOLP-8 [4]) was “S (Synergy)” and the Loewe volume (MOLP-8 [4]) was 5.73. The IC50 (L-363 [5]) was 69 nM, the “combinatorial effect by Loewe volumes” value (L-363 [5]) was “S (Synergy)” and the IC50 (KMS-28-BM [9]) was 2540 nM. For the same compound, the Loewe volume (KMS-28-BM [9]) was 6.37, the “combinatorial effect by Loewe volumes” value (KMS-28-BM [9]) was “S (Synergy)” and the IC50 (MM1.S [10]) was 35.2 nM. The IC50 (U266 [11]) was greater than 10000 nM, the “combinatorial effect by Loewe volumes” value (U266 [11]) was “S (Synergy)” and the “IRF4 expression, combined treatment” value ([17]; pomalidomide + tazemetostat vs either alone) was “enhances repression of IRF4”. The “Ikaros and Aiolos levels” value ([17]; single agent 12.5, 50 or 200 nM) was “results in Ikaros and Aiolos degradation”, the apoptosis (RPMI-8226 [18]) was “enhanced apoptosis” and the IC50 (MM1.S [13]) was 47 nM. The “combinatorial effect by Loewe volumes” value (LP-1 [14]; second agent + tazemetostat) was “S (Synergy)” and the “combinatorial effect by Loewe volumes” value (MOLP-8 [15]) was “S (Synergy)”.
